The results in this text go back to a melting point compilation (Tetko et al.; mined from patent text by program, amines drawn as free bases though some values may be those of a salt).

The structures appear in SMILES notation.

One may read the melting point as the temperature of the solid-liquid transition.

`O=C(O)c1cnc(Cn2cc(C3c4ccccc4C=Cc4ccccc43)c(=S)[nH]c2=O)s1` came in with a melting point of 198 to 200 °C.

Compound `BrCc1ccc2c(c1)C1(c3ccccc3-2)c2ccccc2-c2ccc(CBr)cc21` registered a melting point of 175 to 177 °C.

`CC(=O)CC(=O)Nc1ccc(Nc2ccccc2)cc1` yielded a melting point of 89.5 °C. As for `CCOC(=O)C(=CNc1ccc(F)c(F)c1OCC1CN(Cc2ccccc2)CCN1Cc1ccccc1)C(=O)OCC` (centres undefined), the melting point fell in the range of 109 to 110 °C.

The compound `CCCCN1CCOC2c3cccc4[nH]cc(c34)CC21` (centres undefined) had a melting point of 134 to 140 °C.

`COc1ccc(OC(=O)Nc2cc(C(=O)O)cc(C(=O)O)c2)cc1` yielded a melting point greater than 300 °C.

Compound `CNC(=O)NCC(C)(C)N` came in with a melting point of 150 °C. As for `Nc1ccc2c3c1c(=O)c(C(=O)O)cn3CCC2`, the melting point was greater than 300 °C. For the compound `CCOC(=O)c1c(CCCN(CC)CC)nc2cc(OC)c(OC)cc2c1-c1ccc(OC)c(OC)c1`, the melting point is 96 to 98 °C. The compound `COc1cc2[nH]c(C)c(CCN3CCN(NC(=O)Nc4ccccc4)CC3)c2cc1OC` came in with a melting point of 170 to 173 °C. In turn, `CN(C)C(=O)Nc1ccc(OCCc2ccccc2)c(N)c1` returned a melting point of 125 to 126 °C. With `O=C(O)C=C(c1cccc(Cl)c1)c1cccc(Cl)c1` the figure was 114 to 115 °C; with `Cc1c2c(c3ccccc3c1O)OCC2c1ccc(C(C)C)cc1` (centres undefined), 94 to 96 °C. With `Cc1cc(C)c(Nc2nc(Nc3ccc(C#N)cc3)ncc2N)c(C)c1`, the melting point is 224 to 225 °C. With `COc1cccc2c1Sc1ccc(C(C)C(=O)O)cc1C(=O)C2` (centres undefined), the melting point was 176 to 178 °C. `CC(=O)Nc1cc2c3c(cccc3c1N1CCCC1)C(=O)N(O)C2=O`: the melting point lay within 280 to 284 °C. The compound `O=C(Cc1cccc(OCCCN(Cc2cccc(C(F)(F)F)c2Cl)CC(c2ccccc2)c2ccccc2)c1)NS(=O)(=O)c1ccccc1` yielded a melting point of 110 °C. With `CCOC(=O)/C=C/c1ccc(/C=C/c2c(OC)cc3c(c2OC)C(C)(C)CCC3(C)C)cc1` the figure was 205 to 207 °C; with `CN1C(=O)C(NC(=O)Nc2cccc([N+](=O)[O-])c2)N=C(c2ccccc2)c2ccccc21` (centres undefined), 288 to 289 °C; with `O=Cc1cc(-c2ncc(C(F)(F)F)cc2Cl)ccc1Cl`, 94 °C. The compound `COc1cc(Nc2c(C#N)cnc3cc(OCCCN4CCS(=O)(=O)CC4)c(OC)cc23)c(Cl)cc1Cl` came in with a melting point of 118 to 120 °C. For `OCc1ncccc1Cl` the value was 42 to 44 °C.

Compound `COc1cc2c(cc1OC)C(C=O)c1ccccc1CC2` (centres undefined) returned a melting point of 130 to 132 °C.

Consider `COC(=O)c1cc(C(=O)OC)c(Br)cn1`, for which the melting point lay within 102 to 104 °C.

Turning to `CCC1C(=O)C2C3CCC(C(C)CCC(=O)O)C3(C)CCC2C2(C)CCC(O)CC12` (centres undefined), the melting point lay in the range of 185 to 188 °C.

`CN(CCOc1ccc(CCO)cc1)c1nc2ccccc2o1` yielded a melting point of 95 to 97 °C. In the case of `CN1CCN(c2ccc(S(=O)(=O)c3ccccc3)c3ccccc23)CC1`, the melting point lay within 71 to 72 °C. In turn, `C1C2CC3CC1CC(C2)C3=C1C2CC3CC(C2)CC1C3` showed a melting point of 185 to 186 °C. In turn, `Cc1cc(C)c(COC2CC(n3cc(F)c(=O)[nH]c3=O)OC2CO)c(C)c1` (centres undefined) gave a melting point of 179 to 181 °C.

Compound `N#CCCNN=Cc1ccc(C=NNCCC#N)cc1` registered a melting point of 111 to 113 °C. As to `COc1nc(C)c(C)cc1NC(=S)N1CCN(c2cc(C)cc(C)c2)CC1`, the melting point fell in the range of 192 to 193 °C. `O=C(O)c1cc(=O)n(Cc2ccccc2S(=O)(=O)O)[nH]1` returned a melting point of 223 to 226 °C. `COC(=O)CCCCCCCCN1C(=O)C(c2ccccc2)N(c2ccccc2)C1=O` (centres undefined) came in with a melting point of 69 to 72 °C. For `COc1ccc(S(=O)(=O)Nc2ccccc2NC(=O)c2ccccc2)cc1` the value was 167 to 168 °C.

Compound `Clc1cc(Nc2ccc(N3CCOCC3)cc2)ncn1` showed a melting point of 165 to 166 °C. In turn, `CCOC(=O)NCc1ccc2[nH]cc(CC#N)c2c1` displayed a melting point of 104 to 106 °C. In turn, `C=Cc1ccc(-c2cc(NC(=O)C3Cc4ccccc4C3)n[nH]2)cc1` showed a melting point of 193 to 195 °C.

With `O=C(O)Cc1ccc2[nH]cc(CCNC(=O)OCc3ccccc3)c2c1`, the melting point was in the range of 116 to 117 °C. In turn, `COc1ccc(N(CCCC(=O)O)C(=O)C(C)N(C(C)=O)c2ccc(OC)cc2)cc1` (centres undefined) showed a melting point of 155 to 157 °C.

In turn, `C[C@]1(COC(=O)N2CCN(N=Cc3ccc(C(F)(F)F)cc3)CC2)Cn2cc([N+](=O)[O-])nc2O1` yielded a melting point of 176 to 178 °C. In turn, `O=C(N[C@H](Cc1cccc(Oc2ccccc2)c1)[C@@H](O)c1ccc(F)cc1)c1ccc(F)c2ccccc12` (racemic) registered a melting point of 120 to 121 °C.

For the compound `CCOC(=O)c1cc(NCc2c(C)cccc2C)c2nc(C)n(COCc3ccccc3)c2c1`, the melting point was 155 to 156 °C. `N#CC1=CC2(CCSCC2)Oc2ccc([N+](=O)[O-])cc21` came in with a melting point of 175 to 176 °C. Take `CCN(C)c1nsc(NC(=O)N(C)C)c1C#N`: the melting point is 115 to 130 °C. For `O=C(O)c1cc2ccsc2cn1` the value was 246 °C; for `N#Cc1cc([N+](=O)[O-])ccc1OCC(F)(F)F`, 94 °C. For `O=C1c2ccccc2CN1CCCSc1ccncc1`, the melting point fell in the range of 73 to 74.5 °C. `CC(C)(C)OC(=O)NCCC[C@H](NC(=O)OC(C)(C)C)C(=O)NCCCC(c1ccc(F)cc1)c1ccc(F)cc1` yielded a melting point of 54 to 59 °C. Regarding `CC=C1C(=O)N2C(C(=O)OCc3ccc([N+](=O)[O-])cc3)=C(SCCNC(=O)OCc3ccc([N+](=O)[O-])cc3)CC12` (centres undefined), the melting point lay within 160 to 161 °C. For `CCOC(=O)CNc1ccc2ncccc2c1` the value was 122 to 123 °C.

For the compound `Clc1ccc(C=Cc2ccccc2)cc1Cl`, the melting point is 87.7 °C. Take `S=C1NCC(C2=CCC=CC2)N1` (centres undefined): the melting point is 165 to 167 °C. `Cc1cc(C)c2c(c1C)OC(=O)C2c1ccccc1` (centres undefined) came in with a melting point of 129 to 130 °C. The compound `O=[N+]([O-])CC1(SCc2ccccc2)CCC2(CC1)OCCO2` showed a melting point of 121 to 122 °C.

`COc1cc(N)c(Cl)cc1C(=O)NC1CCN(CC2CCN(C(N)=O)CC2)CC1` gave a melting point of 222 to 224 °C. For `CC(C)c1cccc(C(C)C)c1NC(=O)CNC(c1cccc(C(F)(F)F)c1)c1cccc(C(F)(F)F)c1` the value was 144 to 145 °C; for `O=C1c2cccc3cccc(c23)C(=O)N1CCO`, 172 to 173 °C. For `O=Cc1cccc(-c2cc3c4c(ccn4C(=O)CNC3)c2)c1` the value was 192 to 194 °C; for `CCNC(=O)c1sc2ccccc2c1[Si](C)(C)C`, 131 to 134 °C. `CC(=O)NCc1ccc(CCl)cc1` came in with a melting point of 116 to 118 °C.

Compound `Cc1cc(Br)cnc1CCCCn1nnc2cc(Cc3cccnc3)cnc21` displayed a melting point of 114 to 115 °C.

`NC(=NOC1CCCCO1)Nc1c(Cl)cccc1Cl` (centres undefined) came in with a melting point of 178 to 180 °C. In the case of `O=[N+]([O-])c1cccc(-c2nnc(Nc3cccc(SCCCc4ccccc4)c3)s2)c1`, the melting point lay within 169 to 171 °C. With `ClCCCCOc1ccccc1/C=C/c1nc2ccccc2s1`, the melting point is 98 to 100 °C. Regarding `CC(C)(C)C(O)(Cn1cncn1)C1CC1c1ccc(Cl)cc1Cl` (centres undefined), the melting point lay in the range of 98 to 101 °C. Take `O=CNC1=NN(c2ccc(F)cc2)C(c2ccccc2)C1` (centres undefined): the melting point was 158 to 160 °C. Consider `CC(=O)c1cccc(NC(=O)C(C)(C)C)c1`, for which the melting point was 130 to 133 °C. For `O=c1c2ccccc2ccc2cc(Cl)ccc12`, the melting point lay within 160 to 161 °C. The compound `COc1cc2c(cc1OC)CC1(CC2)NC(=O)CC(C)C1=O` (centres undefined) had a melting point of 168 to 169 °C. Compound `CCCCCCc1cc(C=O)c(O)cc1O` showed a melting point of 108 to 110 °C.

`Clc1c(-c2cnco2)[nH]c2ccccc12` gave a melting point of 131 to 134 °C.

As to `CC(C)OP(=O)(CNc1cc(Oc2ccc(C(F)(F)F)cc2Cl)ccc1[N+](=O)[O-])OC(C)C`, the melting point is 93 to 94 °C.

Turning to `CCCCOc1c2ccccc2nc2c1c(C)nn2-c1ccccn1`, the melting point was in the range of 59 to 61 °C. Compound `O=C(NC/C=C\COc1cc(CN2CCCCC2)ccn1)c1cn[nH]c1` gave a melting point of 121 to 123 °C. For `Cc1nc(C#N)ccc1OC1SCC(O)C(O)C1O` (centres undefined), the melting point is 193 to 195 °C.

`CC1CCCCN(C(=O)C2Cc3ccccc3N2c2ccc(=O)n(C)n2)C1` (centres undefined) showed a melting point of 109 to 112 °C. Turning to `CNC(=S)CC(=S)N(c1c(C)cccc1C)C(C)C(=O)OC` (centres undefined), the melting point was 119 to 121 °C.

Regarding `O=C(O)CCC(=NOCc1ccc(OCc2cn3c(-c4ccccc4)cccc3n2)cc1)c1ccccc1`, the melting point is 160 to 161 °C.

For the compound `Cc1c(N2C[C@@H](N)[C@@H](C(F)F)C2)c(F)cc2c(=O)c(C(=O)O)cn([C@@H]3C[C@@H]3F)c12`, the melting point fell in the range of 214 to 216 °C.

The compound `Cn1nc(-c2cc(C(=O)O)c(Cl)cc2F)c(C=O)c1C(F)(F)F` gave a melting point of 163 °C. `O=C(O)CCCCN(Cc1ccccc1)Cc1ccccc1` gave a melting point of 202 to 205 °C. With `O=S(=O)(NCC(O)(Cn1cncn1)c1ccc(F)cc1F)c1ccc(C(F)(F)F)cc1` (centres undefined) the figure was 161 to 162 °C; with `Cc1cc(C)c2c(c1)C=C(/C=C/C=C/C=C/C(=O)O)CO2`, 208 to 210 °C.

With `CCOc1cc(N(CC)CC)ccc1-c1nc2n(C3CCCC3)[nH]c(CC)c-2c(=O)n1`, the melting point lay in the range of 138 to 139 °C. Compound `CN1CC=C(c2c[nH]c3ccc(NC(=N)c4cccs4)cc23)CC1` had a melting point of 215 to 218 °C. Compound `CN(C)c1ncc(NC(=O)c2cc3cc(C(F)(F)F)cnc3n2Cc2cccc(F)c2)cn1` registered a melting point of 236 to 238 °C. With `Oc1cccc2c1c1cccc(Cl)c1n2Cc1ccc(F)cc1`, the melting point fell in the range of 142 to 145 °C. In the case of `Cc1oc(-c2ccccc2)nc1COc1ccc(Cn2cc(CCC(=O)O)c(-c3ccccc3)c2)cc1`, the melting point fell in the range of 124 to 125 °C. Compound `Cc1cc(-c2nc3cccnn3c2-c2ccnc(NC(=O)c3ccc(Cl)cc3)c2)ccc1F` showed a melting point of 207 to 209 °C.
